Reference: patent publication US20110183946A1, “Complexes Comprising alpha2-Adrenergic Receptor Agonists and Methods of Providing Neuroprotection or Treating or Inhibiting Progression of Glaucoma” (priority 2007, published 2011)
Converted amounts (≈) assume the structure as drawn. Read-outs that look alike come from different tables or passages of the source.

Assays:
physchem = experiment: physchem
Description: Brimonidine and pamoic acid, at a molar ratio of 1:1, were mixed and dispersed in N-methylpyrrolidone (“NMP”). The solution of brimonidine and pamoic acid in NMP was heated while stirring to dissolve brimonidine (the final temperature, typically less than 70° C., was chosen so as not to lose significant amount of solvent). […] The precipitation was allow to proceed; for example, for several hours or overnight. […] Other solvents, known to people skilled in the art, may be used for a compound that provides the counterion to the α2-adrenergic agonist, as appropriate.

[1] = see US Patent Application Publication 2005/0244463 A1; cited from earlier work
[2] = Solubility of various brimonidine complexes in water at the resulting pH; type: physicochemical; conditions: for pH: resulting pH of the aqueous solubility sample
Description: In this experiment, various complexes comprising Brimonidine and counterions of one of the following acids were prepared: pamoic acid, capric acid, sebacic acid, hippuric acid, naproxen, 1-hydroxy-2-naphthoic acid, palmitic acid, and stearic acid. Variations of the procedure described in the following disclosure may be made within the skill of a person of ordinary skill in the art without departing from the scope of the present invention. Brimonidine free base in a preselected solvent was heated to about 60-70° C. The organic acid in another portion of the solvent was added into the heated mixture or was included in the original mixture before heating. The heating of the combined mixture was continued for an additional period, which was not critical. In certain embodiments, an antisolvent was added to the combined mixture, preferably at a lower temperature, to effect a precipitation of the complex of brimonidine and the counterion. It may be advantageous to remove a portion of the solvent and antisolvent to assist the precipitation. In certain other embodiments, the heated combined mixture was cooled down to a lower temperature, such as room temperature (or below) to effect the precipitation of the complex of brimonidine and the counterion. The precipitate was then filtered and dried to yield the final complex.

For brimonidine tartrate, the Solubility in water (physchem; water, after 11 days on a twist shaker) is given as 41588 µg/mL and the Solubility in water [1] is given as “about 34 mg/ml”.
With naphthoate the pH [2] was 5.3-5.4.
With `Brc1c(NC2=NCCN2)ccc2nccnc12.O=C(O)c1ccc2ccccc2c1O` [1-hydroxy-2-naphtoate] the pH [2] was 6.8.
In the case of `Brc1c(NC2=NCCN2)ccc2nccnc12.O=C(O)c1cc2ccccc2c(Cc2c(O)c(C(=O)O)cc3ccccc23)c1O` [brimonidine pamoate], the Solubility in water (physchem) is reported as 207 µg/mL and the pH [2] is reported as 7.2-7.5.
In the case of `Brc1c(NC2=NCCN2)ccc2nccnc12` [brimonidine free base, 5-bromo-N-(2-imidazolin-2-yl)-6-quinoxalinamine], the solubility at 11 days (physchem; water, thermodynamic from solid) is reported as 215 µg/mL (≈ 736 µM), the solubility ([2]; in water at the resulting pH (pH in column 1 of the same row)) is reported as 48 to 200 µg/mL (≈ 164 to 685 µM) and the pH [2] is reported as 8.1-8.9.
